Assay results taken from ChEMBL document CHEMBL1154368, “Benzothiazoles as Rho-associated kinase (ROCK-II) inhibitors” (Bioorg Med Chem Lett, 2009).

What was measured:
[1] = Selectivity for ROCK2 over PKA
[2] = target: T1, Rho-associated protein kinase 2 (Homo sapiens, UniProt O75116); assay: Inhibition of ROCK2
[3] = Inhibition of PKA
[4] = target: T1, Rho-associated protein kinase 2
Description: Inhibition of ROCK2 assessed as myosin light chain phosphorylation by cell-based assay

[5] = Metabolic stability in human liver microsomes assessed as half life; type: ADME, Microsome
[6] = target: Serine/threonine-protein kinase MRCK alpha (Homo sapiens, UniProt Q5VT25); assay: Inhibition of MRCKalpha
[7] = Inhibition of p38
[8] = target: Mitogen-activated protein kinase 10 (Homo sapiens, UniProt P53779); assay: Inhibition of JNK3
[9] = target: Rho-associated protein kinase 1 (Homo sapiens, UniProt Q13464); assay: Inhibition of ROCK1
[10] = Clearance in rat; type: ADME, organism-based; conditions: in vivo
[11] = Oral bioavailability in rat; type: ADME, organism-based; conditions: in vivo
[12] = Metabolic stability in rat liver microsomes assessed as half life; type: ADME, Microsome

T1 sequence (O75116 whole entry): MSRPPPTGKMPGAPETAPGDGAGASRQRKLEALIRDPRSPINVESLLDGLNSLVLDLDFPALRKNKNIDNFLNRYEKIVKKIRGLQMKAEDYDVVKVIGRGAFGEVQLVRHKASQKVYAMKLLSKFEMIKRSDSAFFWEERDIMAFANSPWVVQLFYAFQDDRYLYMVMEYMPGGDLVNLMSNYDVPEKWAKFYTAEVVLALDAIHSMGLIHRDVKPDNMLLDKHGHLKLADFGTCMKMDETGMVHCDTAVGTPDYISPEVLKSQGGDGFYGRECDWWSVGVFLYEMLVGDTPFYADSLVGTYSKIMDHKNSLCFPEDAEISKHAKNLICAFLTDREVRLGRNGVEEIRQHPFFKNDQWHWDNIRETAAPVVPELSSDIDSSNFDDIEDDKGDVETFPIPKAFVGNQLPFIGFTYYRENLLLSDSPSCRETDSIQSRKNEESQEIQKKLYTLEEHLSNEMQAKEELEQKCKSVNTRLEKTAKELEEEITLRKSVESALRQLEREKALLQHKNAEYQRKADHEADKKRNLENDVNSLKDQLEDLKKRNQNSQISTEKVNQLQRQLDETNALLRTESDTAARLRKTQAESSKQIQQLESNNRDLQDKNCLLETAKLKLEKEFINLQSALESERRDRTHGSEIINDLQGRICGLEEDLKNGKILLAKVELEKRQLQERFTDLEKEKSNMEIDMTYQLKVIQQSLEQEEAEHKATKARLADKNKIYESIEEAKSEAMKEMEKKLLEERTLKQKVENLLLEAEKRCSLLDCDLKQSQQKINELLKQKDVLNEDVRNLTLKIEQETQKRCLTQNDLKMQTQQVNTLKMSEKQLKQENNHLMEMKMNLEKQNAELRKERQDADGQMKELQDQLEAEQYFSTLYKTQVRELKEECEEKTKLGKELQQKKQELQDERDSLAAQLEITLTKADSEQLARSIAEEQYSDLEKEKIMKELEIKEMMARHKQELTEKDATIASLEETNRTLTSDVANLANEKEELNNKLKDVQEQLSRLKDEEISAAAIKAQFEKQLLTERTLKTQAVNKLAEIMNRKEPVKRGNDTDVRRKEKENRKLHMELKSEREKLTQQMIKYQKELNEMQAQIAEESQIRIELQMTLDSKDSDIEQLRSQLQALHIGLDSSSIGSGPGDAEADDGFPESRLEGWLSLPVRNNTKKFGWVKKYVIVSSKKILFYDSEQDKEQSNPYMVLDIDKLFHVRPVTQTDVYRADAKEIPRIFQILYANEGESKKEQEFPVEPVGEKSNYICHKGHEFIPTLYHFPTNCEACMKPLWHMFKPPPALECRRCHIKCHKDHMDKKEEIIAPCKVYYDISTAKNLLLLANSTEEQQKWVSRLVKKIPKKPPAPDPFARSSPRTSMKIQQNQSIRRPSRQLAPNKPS
Sequence of Mitogen-activated protein kinase 10 (P53779 whole entry): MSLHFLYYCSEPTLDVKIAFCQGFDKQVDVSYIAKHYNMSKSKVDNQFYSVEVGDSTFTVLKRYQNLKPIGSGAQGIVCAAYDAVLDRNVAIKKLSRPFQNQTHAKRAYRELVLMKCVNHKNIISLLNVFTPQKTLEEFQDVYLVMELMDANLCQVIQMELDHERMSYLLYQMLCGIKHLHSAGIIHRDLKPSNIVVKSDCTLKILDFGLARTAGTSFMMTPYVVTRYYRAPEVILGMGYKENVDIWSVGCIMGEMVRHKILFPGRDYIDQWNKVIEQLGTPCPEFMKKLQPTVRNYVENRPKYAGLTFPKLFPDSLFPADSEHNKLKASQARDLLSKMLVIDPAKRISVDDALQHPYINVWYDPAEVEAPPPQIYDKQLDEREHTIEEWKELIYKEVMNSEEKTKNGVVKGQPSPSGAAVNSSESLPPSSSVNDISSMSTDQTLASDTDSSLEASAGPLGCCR
Sequence of Rho-associated protein kinase 1 (Q13464 whole entry): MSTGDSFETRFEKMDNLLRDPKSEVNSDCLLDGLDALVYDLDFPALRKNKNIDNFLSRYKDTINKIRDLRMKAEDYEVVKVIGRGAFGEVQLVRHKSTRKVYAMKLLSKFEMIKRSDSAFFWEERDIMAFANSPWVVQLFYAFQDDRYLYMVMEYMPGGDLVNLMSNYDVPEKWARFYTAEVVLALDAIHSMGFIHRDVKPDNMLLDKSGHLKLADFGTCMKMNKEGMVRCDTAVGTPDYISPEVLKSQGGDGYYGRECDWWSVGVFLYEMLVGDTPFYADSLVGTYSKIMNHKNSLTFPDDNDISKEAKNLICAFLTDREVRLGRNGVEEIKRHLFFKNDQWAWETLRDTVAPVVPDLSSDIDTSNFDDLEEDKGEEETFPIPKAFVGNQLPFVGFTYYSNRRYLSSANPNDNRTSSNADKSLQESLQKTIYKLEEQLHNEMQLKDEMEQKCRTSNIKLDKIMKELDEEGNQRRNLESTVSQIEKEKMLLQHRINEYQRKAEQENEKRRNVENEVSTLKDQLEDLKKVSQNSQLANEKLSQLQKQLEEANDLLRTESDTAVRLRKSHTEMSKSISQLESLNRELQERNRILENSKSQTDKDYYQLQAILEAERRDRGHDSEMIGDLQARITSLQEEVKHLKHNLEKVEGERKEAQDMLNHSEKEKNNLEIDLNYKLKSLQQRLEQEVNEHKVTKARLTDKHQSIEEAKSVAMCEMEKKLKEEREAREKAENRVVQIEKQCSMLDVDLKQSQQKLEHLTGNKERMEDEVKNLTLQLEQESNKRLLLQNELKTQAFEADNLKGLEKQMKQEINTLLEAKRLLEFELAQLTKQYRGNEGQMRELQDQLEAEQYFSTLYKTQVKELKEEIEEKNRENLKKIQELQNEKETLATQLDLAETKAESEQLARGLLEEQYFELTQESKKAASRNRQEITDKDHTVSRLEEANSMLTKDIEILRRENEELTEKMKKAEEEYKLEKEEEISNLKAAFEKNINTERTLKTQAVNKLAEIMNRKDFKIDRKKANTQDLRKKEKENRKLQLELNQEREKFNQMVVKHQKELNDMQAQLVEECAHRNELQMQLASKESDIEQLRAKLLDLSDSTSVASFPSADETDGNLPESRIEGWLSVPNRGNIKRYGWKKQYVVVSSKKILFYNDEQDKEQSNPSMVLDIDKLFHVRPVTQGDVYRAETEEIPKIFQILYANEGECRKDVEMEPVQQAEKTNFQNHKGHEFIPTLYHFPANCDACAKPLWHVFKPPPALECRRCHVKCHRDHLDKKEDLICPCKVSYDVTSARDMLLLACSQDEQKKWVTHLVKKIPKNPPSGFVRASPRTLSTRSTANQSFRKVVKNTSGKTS
Sequence of Serine/threonine-protein kinase MRCK alpha (Q5VT25 whole entry): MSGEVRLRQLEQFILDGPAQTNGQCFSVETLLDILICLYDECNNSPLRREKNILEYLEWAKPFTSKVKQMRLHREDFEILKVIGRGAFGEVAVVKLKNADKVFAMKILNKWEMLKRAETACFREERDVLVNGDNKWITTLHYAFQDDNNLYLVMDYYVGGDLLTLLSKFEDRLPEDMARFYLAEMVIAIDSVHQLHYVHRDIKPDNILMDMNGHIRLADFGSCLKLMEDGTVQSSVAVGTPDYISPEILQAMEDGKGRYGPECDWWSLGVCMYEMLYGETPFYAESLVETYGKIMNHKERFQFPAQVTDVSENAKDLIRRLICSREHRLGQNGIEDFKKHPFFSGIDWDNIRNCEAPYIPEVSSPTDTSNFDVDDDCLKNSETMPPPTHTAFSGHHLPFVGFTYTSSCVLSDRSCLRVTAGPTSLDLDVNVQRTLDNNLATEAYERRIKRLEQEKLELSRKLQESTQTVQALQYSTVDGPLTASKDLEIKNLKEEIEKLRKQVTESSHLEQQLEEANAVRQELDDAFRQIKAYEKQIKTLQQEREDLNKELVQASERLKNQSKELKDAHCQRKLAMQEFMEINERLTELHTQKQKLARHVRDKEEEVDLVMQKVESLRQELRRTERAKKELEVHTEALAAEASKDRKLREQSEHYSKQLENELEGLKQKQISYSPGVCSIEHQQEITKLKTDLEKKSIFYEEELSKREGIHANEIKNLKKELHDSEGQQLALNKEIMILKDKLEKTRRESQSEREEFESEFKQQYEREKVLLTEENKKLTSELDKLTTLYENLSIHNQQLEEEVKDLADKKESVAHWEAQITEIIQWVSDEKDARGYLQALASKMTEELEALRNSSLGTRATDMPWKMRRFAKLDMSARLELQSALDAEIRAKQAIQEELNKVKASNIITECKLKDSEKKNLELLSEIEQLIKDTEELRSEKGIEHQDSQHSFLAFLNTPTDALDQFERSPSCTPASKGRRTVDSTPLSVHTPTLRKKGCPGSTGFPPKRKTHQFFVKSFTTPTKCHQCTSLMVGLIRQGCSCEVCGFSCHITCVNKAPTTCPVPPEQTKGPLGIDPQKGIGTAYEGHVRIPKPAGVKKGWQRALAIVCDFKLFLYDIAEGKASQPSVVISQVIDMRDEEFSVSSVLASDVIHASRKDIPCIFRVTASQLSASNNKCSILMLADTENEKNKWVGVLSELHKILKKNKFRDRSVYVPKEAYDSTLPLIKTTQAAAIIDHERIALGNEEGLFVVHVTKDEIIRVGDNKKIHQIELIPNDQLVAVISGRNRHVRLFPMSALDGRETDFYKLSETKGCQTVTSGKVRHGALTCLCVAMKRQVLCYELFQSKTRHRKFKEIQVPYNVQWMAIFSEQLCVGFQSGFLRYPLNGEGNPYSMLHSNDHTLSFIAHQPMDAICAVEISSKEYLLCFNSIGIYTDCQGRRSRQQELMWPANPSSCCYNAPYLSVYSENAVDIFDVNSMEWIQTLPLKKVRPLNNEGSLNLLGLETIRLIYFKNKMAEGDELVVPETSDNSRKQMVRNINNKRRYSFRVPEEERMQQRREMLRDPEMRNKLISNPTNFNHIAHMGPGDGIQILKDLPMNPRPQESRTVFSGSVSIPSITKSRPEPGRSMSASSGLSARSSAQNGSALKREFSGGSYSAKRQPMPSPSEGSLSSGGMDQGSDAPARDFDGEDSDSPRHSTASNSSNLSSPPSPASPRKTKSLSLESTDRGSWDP

| Structure (SMILES) | Selectivity ratio [1] | IC50 [2] | IC50 [3] | IC50 [4] | further results |
| --- | --- | --- | --- | --- | --- |
| c1ccc2c(c1)CC(c1nc3ccc(-c4ccncc4)cc3s1)CO2 (centres undefined) | 25 | 0.042 µM | 1.1 µM | – | – |
| COc1cccc(CN(C(=O)c2nc3ccc(-c4cn[nH]c4)cc3s2)C2CC2)c1 | – | 0.094 µM | 19.6 µM | – | – |
| CN(C)CCN(C)c1cc(-c2cn[nH]c2)cc2sc(C3COc4ccccc4C3)nc12 (centres undefined) | 12 | 0.051 µM | 0.702 µM | 0.365 µM | – |
| COc1cc(-c2cn[nH]c2)cc2sc(C3COc4ccccc4C3)nc12 (centres undefined) | – | 0.032 µM | > 5 µM | 1.24 µM | – |
| Fc1cc2nc(C3COc4ccccc4C3)sc2cc1-c1cn[nH]c1 (centres undefined) | – | 0.047 µM | 0.537 µM | > 2.7 µM | – |
| COc1ccc2c(c1)CC(c1nc3ccc(-c4cn[nH]c4)cc3s1)CO2 (centres undefined) | – | 0.045 µM | > 20 µM | > 2.7 µM | – |
| CN(C)CCOc1cc(-c2cn[nH]c2)cc2sc(C3COc4ccccc4C3)nc12 (centres undefined) | > 75 | 0.066 µM | > 5 µM | 0.365 µM | – |
| COc1cccc(CN(C)C(=O)c2nc3ccc(-c4cn[nH]c4)cc3s2)c1 | – | 0.059 µM | > 20 µM | – | – |
| O=C(NCc1ccccc1)c1nc2ccc(-c3cn[nH]c3)cc2s1 | – | 0.053 µM | 4.64 µM | – | – |
| Fc1ccc2c(c1)CC(c1nc3ccc(-c4cn[nH]c4)cc3s1)CO2 (centres undefined) | – | 0.038 µM | 1.93 µM | 1.48 µM | – |
| O=C(NCc1cccc(F)c1)c1nc2ccc(-c3cn[nH]c3)cc2s1 | – | 0.072 µM | 2.68 µM | – | – |
| COCCN(Cc1cccc(OC)c1)C(=O)c1nc2ccc(-c3cn[nH]c3)cc2s1 | – | 0.01 µM | > 20 µM | 0.871 µM | – |
| c1ccc2c(c1)CC(c1nc3c(OCCN4CCOCC4)cc(-c4cn[nH]c4)cc3s1)CO2 (centres undefined) | – | 0.314 µM | > 5 µM | – | – |
| CN(C)CCNC(=O)c1ccc2c(c1)CC(c1nc3ccc(-c4cn[nH]c4)cc3s1)CO2 (centres undefined) | 83 | 0.007 µM | 0.582 µM | 0.02 µM | half-life [5]: 35 min |
| CCN(Cc1cccc(OC)c1)C(=O)c1nc2ccc(-c3cn[nH]c3)cc2s1 | – | 0.026 µM | 16.3 µM | 0.455 µM | IC50 [6]: 7.86 µM; IC50 [7]: > 20 µM; IC50 [8]: > 20 µM; IC50 [9]: 0.18 µM |
| Fc1cc(-c2cn[nH]c2)cc2sc(C3COc4ccccc4C3)nc12 (centres undefined) | 43 | 0.014 µM | 0.644 µM | > 2.7 µM | – |
| COc1cccc(CN(CCN(C)C)C(=O)c2nc3ccc(-c4cn[nH]c4)cc3s2)c1 | > 100 | 0.0004 µM | 0.045 µM | < 0.006 µM | IC50 [6]: 0.247 µM; clearance [10]: 3 L/h/kg; half-life [5]: 15 min; IC50 [7]: > 20 µM; bioavailability [11]: 0%; IC50 [8]: 13.8 µM; IC50 [9]: 0.0035 µM |
| Clc1ccc2c(c1)CC(c1nc3ccc(-c4cn[nH]c4)cc3s1)CO2 (centres undefined) | – | 0.075 µM | 1.78 µM | – | – |
| c1ccc2c(c1)CC(c1nc3c(OCCC4CCOC4)cc(-c4cn[nH]c4)cc3s1)CO2 (centres undefined) | – | 0.5 µM | > 5 µM | – | – |
| COc1cccc(CNC(=O)c2nc3ccc(-c4cn[nH]c4)cc3s2)c1 | 300 | 0.018 µM | 5.29 µM | > 2.7 µM | – |
| Cc1n[nH]cc1-c1ccc2nc(C3COc4ccccc4C3)sc2c1 (centres undefined) | – | 0.025 µM | 0.404 µM | – | – |
| Cc1cc(-c2ccc3nc(C4COc5ccccc5C4)sc3c2)ccn1 (centres undefined) | – | 1.2 µM | 7.99 µM | – | – |
| c1ccc2c(c1)CC(c1nc3ccc(-c4cn[nH]c4)cc3s1)CO2 (centres undefined) | 30 | 0.011 µM | 0.341 µM | 1.55 µM | – |
| Nc1nccc(-c2ccc3nc(C4COc5ccccc5C4)sc3c2)n1 (centres undefined) | 17 | 0.009 µM | 0.156 µM | 1.5 µM | half-life [5]: 47 min; half-life [12]: 23 min |
| CN(C)CCCNC(=O)c1ccc2c(c1)CC(c1nc3ccc(-c4cn[nH]c4)cc3s1)CO2 (centres undefined) | 847 | 0.0009 µM | 0.765 µM | < 0.004 µM | IC50 [6]: 9.55 µM; half-life [5]: 34 min; IC50 [7]: > 20 µM; IC50 [8]: 5.46 µM; IC50 [9]: 0.002 µM |
| Cc1ccc2c(c1)CC(c1nc3ccc(-c4cn[nH]c4)cc3s1)CO2 (centres undefined) | – | 0.093 µM | > 20 µM | – | – |
| COC(=O)c1ccc2c(c1)CC(c1nc3ccc(-c4cn[nH]c4)cc3s1)CO2 (centres undefined) | – | 0.059 µM | > 5 µM | 1.48 µM | – |
